In brackets after ≈: the same amount, converted by molar mass.
System: 20-HETE formation (CYP4) in RLM
Assay: Inhibition of 20-HETE formation at 250 or 500 nM in RLM microsomal incubations
Format: biochemical, rat
Conditions: 500 nM compound; RLM 300 μg/ml
Method: (§1) To screen the inhibitory effects against 20-HETE formation, compounds were screened in HLM, RLM, RKM and rCYP4F2 microsomal incubations. Compounds dissolved in either 100% methanol or 100% DMSO to yield 10 mM stock solution. Microsomal incubations containing HLM, RLM, RKM (300 μg/ml) or rCYP4F2 (25 pmol/mL), AA (100 μM), NADPH (1 mM) treated with test compounds at various concentrations (500 nM or 250 nM) in a 1 ml total volume in incubation buffer (0.12 M potassium phosphate buffer containing 5 mM magnesium chloride). Reaction was started by adding NADPH to the incubates and was carried out at 37° C. in a shaking water bath for 20 min. Reaction was stopped by placing tubes on ice, followed by adding 125 μl 20-HETE-d6 as internal standard to each sample. Microsomal incubations were extracted with 3 ml ethyl ether twice, dried down under nitrogen gas and reconstituted in 125 μl 80:20 methanol:deionized H2O for analysis. 20-HETE formation was quantified using a validated UPLC-MS/MS assay and normalized by vehicle group. Each compound had three replications (n=3). Vehicle group was used as control to calculate percentage of 20-HETE formation rate. HET0016 (250 nM) was used as positive control. Incubates without NADPH group served as the negative control. An Acquity ultra performance LC autosampler (Waters, Milford, MA) was used to isolate 20-HETE on an UPLC BEH C18, 1.7 μm (2.1×100 mm) reversed-phase column (Waters, Milford, MA) protected by a guard column (2.1×5 mm; Waters, Milford, MA) of the same packing material. Column temperature was maintained at 55° C. Mobile phases consisted of 0.005% acetic acid, 5% acetonitrile in deionized water (A) and 0.005% acetic acid in acetonitrile (B). The flow rate for mobile phases is 0.5 ml/min. The initial mixture of mobile phase was 65:35 of A and B. Mobile phase B increased at 0.4 minutes after injection from 35% to 70% in a linear gradient over 4 minutes, and again increased to 95% over 0.5 minutes where it remained for 0.3 minutes. This was followed by a linear return to initial conditions over 0.1 minutes with a 1.5 minute pre-equilibration period prior to the next sample run. Total run time was 6.4 minutes for each injection. Injection volumes were 7.5 μl. Mass spectrometric analysis was carried out using a TSQ Quantum Ultra (Thermo Fisher Scientific, San Jose, CA) triple quadrupole mass spectrometer using heated electrospray ionization (HESI). Mass spectrometer was operated in negative selective reaction monitoring (SRM) mode with unit resolutions at both Q1 and Q3 set at 0.70 Da full width at half maximum. Scan time was set at 0.01 s and collision gas pressure was 1.3 mTorr. Quantitation of 20-HETE by SRM was performed by monitoring the m/z. Analytical data was acquired and analyzed using Xcaliber 3.0 data system (ThermoFinnigan, San Jose, CA).

Row | Compound | RLM % inh. @ 500 nM
1 | COc1cc(C2CCN(c3ccn[nH]3)CC2)ccc1F [Compound 74, 4-(4-Fluoro-3-methoxyphenyl)-1-(1H-pyrazol-5-yl)piperidine] | 0.00%
2 | COc1cc(C2CCN(c3cn[nH]c3)CC2)ccc1F [Compound 75, 4-(4-Fluoro-3-methoxyphenyl)-1-(1H-pyrazol-4-yl)piperidine] | 0.00%
3 | COc1ccc(SC2CCN(c3cn[nH]c3)CC2)cc1 [Compound 80, 4-((4-Methoxyphenyl)thio)-1-(1H-pyrazol-4-yl)piperidine] | 42.00%
4 | O=C1CCCN1Cc1ccc(C2CCN(c3ccn[nH]3)CC2)cc1 [Compound 84, 1-(4-(1-(1H-Pyrazol-5-yl)piperidin-4-yl)benzyl)pyrrolidin-2-one] | 42.70%
5 | CS(=O)(=O)Cc1ccc(C2CCN(c3cn[nH]c3)CC2)cc1 [Compound 89, 4-(4-((methylsulfonyl)methyl)phenyl)-1-(1H-pyrazol-4-yl)piperidine] | 0.00%
6 | O=C1CCCN1c1ccc(CC2CCN(c3cn[nH]c3)CC2)cc1 [Compound 107, 1-(4-((1-(1H-Pyrazol-4-yl)piperidin-4-yl)methyl)phenyl)pyrrolidin-2-one] | 63.60%
7 | O=S1(=O)Cc2ccc(C3CCN(c4cn[nH]c4)CC3)cc2C1 [Compound 108, 5-(1-(1H-Pyrazol-4-yl)piperidin-4-yl)-1,3-dihydrobenzo[c]thiophene 2,2-dioxide] | 41.70%
8 | O=C1CCCN1Cc1ccc(C2CCN(c3ccn[nH]3)CC2)cc1F [Compound 110, 1-(4-(1-(1H-Pyrazol-5-yl)piperidin-4-yl)-2-fluorobenzyl)pyrrolidin-2-one] | 63.60%
9 | O=S(=O)(Nc1ccc(C2CCN(c3cn[nH]c3)CC2)cc1)C1CC1 [Compound 114, N-(4-(1-(1H-pyrazol-4-yl)piperidin-4-yl)phenyl)cyclopropanesulfonamide] | 36.70%
10 | Cl.Clc1ccc(CC2CCN(c3cn[nH]c3)CC2)cc1 [Compound 115, 4-(4-Chlorobenzyl)-1-(1H-pyrazol-4-yl)piperidine hydrochloride] | 74.30%

Target: T1, rCYP4F2 (Homo sapiens, UniProt P78329)
T1 sequence (P78329 5-520): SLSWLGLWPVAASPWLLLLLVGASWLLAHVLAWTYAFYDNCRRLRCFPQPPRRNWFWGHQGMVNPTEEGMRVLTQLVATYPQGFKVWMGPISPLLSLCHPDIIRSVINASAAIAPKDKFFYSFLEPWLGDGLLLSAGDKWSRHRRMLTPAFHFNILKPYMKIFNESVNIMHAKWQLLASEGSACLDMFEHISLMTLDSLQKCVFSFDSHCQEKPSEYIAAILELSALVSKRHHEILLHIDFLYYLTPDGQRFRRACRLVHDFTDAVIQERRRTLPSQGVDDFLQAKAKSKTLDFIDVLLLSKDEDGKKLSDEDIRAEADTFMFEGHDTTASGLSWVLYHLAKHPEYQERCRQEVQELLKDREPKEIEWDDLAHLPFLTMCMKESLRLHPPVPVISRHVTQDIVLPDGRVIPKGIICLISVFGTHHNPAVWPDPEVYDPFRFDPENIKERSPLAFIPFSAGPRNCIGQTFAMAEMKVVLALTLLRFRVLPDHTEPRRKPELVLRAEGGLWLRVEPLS
Assay: Inhibition of 20-HETE formation at 250 or 500 nM in rCYP4F2 incubations
Format: biochemical
Conditions: 500 nM compound; rCYP4F2 25 pmol/mL
Method: as §1

Row | Compound | rCYP4F2 % inh. @ 500 nM
11 | Cl.Clc1ccc(CC2CCN(c3cn[nH]c3)CC2)cc1 [Compound 115, 4-(4-Chlorobenzyl)-1-(1H-pyrazol-4-yl)piperidine hydrochloride] | 84.20%

Same assay, conditions: 500 nM compound; rCYP4F2 25 pmol/mL; read-out: rCYP4F2 % inh. @ 500 nM

Row | Compound | inhibition at 0.5 µM
12 | COc1cc(C2CCN(c3ccn[nH]3)CC2)ccc1F [Compound 74, 4-(4-Fluoro-3-methoxyphenyl)-1-(1H-pyrazol-5-yl)piperidine] | 32%
13 | COc1cc(C2CCN(c3cn[nH]c3)CC2)ccc1F [Compound 75, 4-(4-Fluoro-3-methoxyphenyl)-1-(1H-pyrazol-4-yl)piperidine] | 74.5%
14 | COc1ccc(SC2CCN(c3cn[nH]c3)CC2)cc1 [Compound 80, 4-((4-Methoxyphenyl)thio)-1-(1H-pyrazol-4-yl)piperidine] | 90%
15 | O=C1CCCN1Cc1ccc(C2CCN(c3ccn[nH]3)CC2)cc1 [Compound 84, 1-(4-(1-(1H-Pyrazol-5-yl)piperidin-4-yl)benzyl)pyrrolidin-2-one] | 80.3%
16 | CS(=O)(=O)Cc1ccc(C2CCN(c3cn[nH]c3)CC2)cc1 [Compound 89, 4-(4-((methylsulfonyl)methyl)phenyl)-1-(1H-pyrazol-4-yl)piperidine] | 72.9%
17 | O=C1CCCN1c1ccc(CC2CCN(c3cn[nH]c3)CC2)cc1 [Compound 107, 1-(4-((1-(1H-Pyrazol-4-yl)piperidin-4-yl)methyl)phenyl)pyrrolidin-2-one] | 82.3%
18 | O=S1(=O)Cc2ccc(C3CCN(c4cn[nH]c4)CC3)cc2C1 [Compound 108, 5-(1-(1H-Pyrazol-4-yl)piperidin-4-yl)-1,3-dihydrobenzo[c]thiophene 2,2-dioxide] | 83%
19 | O=C1CCCN1Cc1ccc(C2CCN(c3ccn[nH]3)CC2)cc1F [Compound 110, 1-(4-(1-(1H-Pyrazol-5-yl)piperidin-4-yl)-2-fluorobenzyl)pyrrolidin-2-one] | 84.1%
20 | O=S(=O)(Nc1ccc(C2CCN(c3cn[nH]c3)CC2)cc1)C1CC1 [Compound 114, N-(4-(1-(1H-pyrazol-4-yl)piperidin-4-yl)phenyl)cyclopropanesulfonamide] | 87.4%

System: 20-HETE formation (CYP4) in HLM
Assay: Inhibition of 20-HETE formation at 250 or 500 nM in HLM microsomal incubations
Format: biochemical, human
Conditions: 500 nM compound; HLM 300 μg/ml, AA 100 μM, 20 min
Method: as §1

Row | Compound | HLM % inh. @ 500 nM
21 | COc1cc(C2CCN(c3ccn[nH]3)CC2)ccc1F [Compound 74, 4-(4-Fluoro-3-methoxyphenyl)-1-(1H-pyrazol-5-yl)piperidine] | 55%
22 | COc1cc(C2CCN(c3cn[nH]c3)CC2)ccc1F [Compound 75, 4-(4-Fluoro-3-methoxyphenyl)-1-(1H-pyrazol-4-yl)piperidine] | 61.10%
23 | COc1ccc(SC2CCN(c3cn[nH]c3)CC2)cc1 [Compound 80, 4-((4-Methoxyphenyl)thio)-1-(1H-pyrazol-4-yl)piperidine] | 86%
24 | O=C1CCCN1Cc1ccc(C2CCN(c3ccn[nH]3)CC2)cc1 [Compound 84, 1-(4-(1-(1H-Pyrazol-5-yl)piperidin-4-yl)benzyl)pyrrolidin-2-one] | 79.4%
25 | CS(=O)(=O)Cc1ccc(C2CCN(c3cn[nH]c3)CC2)cc1 [Compound 89, 4-(4-((methylsulfonyl)methyl)phenyl)-1-(1H-pyrazol-4-yl)piperidine] | 34.8%
26 | O=C1CCCN1c1ccc(CC2CCN(c3cn[nH]c3)CC2)cc1 [Compound 107, 1-(4-((1-(1H-Pyrazol-4-yl)piperidin-4-yl)methyl)phenyl)pyrrolidin-2-one] | 78.90%
27 | O=S1(=O)Cc2ccc(C3CCN(c4cn[nH]c4)CC3)cc2C1 [Compound 108, 5-(1-(1H-Pyrazol-4-yl)piperidin-4-yl)-1,3-dihydrobenzo[c]thiophene 2,2-dioxide] | 90.00%
28 | O=C1CCCN1Cc1ccc(C2CCN(c3ccn[nH]3)CC2)cc1F [Compound 110, 1-(4-(1-(1H-Pyrazol-5-yl)piperidin-4-yl)-2-fluorobenzyl)pyrrolidin-2-one] | 80.4%
29 | O=S(=O)(Nc1ccc(C2CCN(c3cn[nH]c3)CC2)cc1)C1CC1 [Compound 114, N-(4-(1-(1H-pyrazol-4-yl)piperidin-4-yl)phenyl)cyclopropanesulfonamide] | 68.7%
30 | Cl.Clc1ccc(CC2CCN(c3cn[nH]c3)CC2)cc1 [Compound 115, 4-(4-Chlorobenzyl)-1-(1H-pyrazol-4-yl)piperidine hydrochloride] | 85.50%

System: not listed separately
Assay: Turbidometric solubility determination
Format: physicochemical
Conditions: PBS with 1% DMSO, aqueous buffer, kinetic from dmso stock, room temperature, OD620, read-out: Max Solub
Method: Solubility determinations shown in Table 3 were obtained turbidometrically and in a manner similar to the one described in Perez et al., J. Biomol. Screen, 2015, 20(2), 254-64. The method requires small volumes of 100× stock concentration drug solution to be prepared in DMSO 0, 0.23, 0.47, 0.94, 1.88, 3.75, 7.5, 15.0, 30.0 and […]. The stock drug concentrations are then diluted 1:100 added into triplicate wells containing PBS in a clear bottom 384 well microtiter to achieve final testing concentrations of 0, 2.3, 4.7, 9.4, 18.8, 37.5, 75, 150, 300, 600 μM in 1% DMSO. The plate is allowed to equilibrate with constant shaking for 2 hours at room temperature. The plate is then placed in a SpectroMax V plate reader to measure absorbance at 620 nm. Increase in absorbance is evident in test wells which precipitation of the compound is evident. The plot of OD620 vs. drug concentration is used to calculate the maximum solubility limit as determined by a statistically significant increase in absorbance above the background levels.

Row | Compound | solubility at 2 h
31 | COc1cc(C2CCN(c3ccn[nH]3)CC2)ccc1F [Compound 74, 4-(4-Fluoro-3-methoxyphenyl)-1-(1H-pyrazol-5-yl)piperidine] | 201 µM (≈ 55.3 µg/mL)
32 | COc1cc(C2CCN(c3cn[nH]c3)CC2)ccc1F [Compound 75, 4-(4-Fluoro-3-methoxyphenyl)-1-(1H-pyrazol-4-yl)piperidine] | 127 µM (≈ 35 µg/mL)
33 | COc1ccc(SC2CCN(c3cn[nH]c3)CC2)cc1 [Compound 80, 4-((4-Methoxyphenyl)thio)-1-(1H-pyrazol-4-yl)piperidine] | 89 µM (≈ 25.8 µg/mL)
34 | O=C1CCCN1Cc1ccc(C2CCN(c3ccn[nH]3)CC2)cc1 [Compound 84, 1-(4-(1-(1H-Pyrazol-5-yl)piperidin-4-yl)benzyl)pyrrolidin-2-one] | > 600 µM
35 | CS(=O)(=O)Cc1ccc(C2CCN(c3cn[nH]c3)CC2)cc1 [Compound 89, 4-(4-((methylsulfonyl)methyl)phenyl)-1-(1H-pyrazol-4-yl)piperidine] | 324 µM (≈ 104 µg/mL)
36 | O=C1CCCN1c1ccc(CC2CCN(c3cn[nH]c3)CC2)cc1 [Compound 107, 1-(4-((1-(1H-Pyrazol-4-yl)piperidin-4-yl)methyl)phenyl)pyrrolidin-2-one] | 216 µM (≈ 70.1 µg/mL)
37 | O=S1(=O)Cc2ccc(C3CCN(c4cn[nH]c4)CC3)cc2C1 [Compound 108, 5-(1-(1H-Pyrazol-4-yl)piperidin-4-yl)-1,3-dihydrobenzo[c]thiophene 2,2-dioxide] | 187 µM (≈ 59.4 µg/mL)
38 | O=C1CCCN1Cc1ccc(C2CCN(c3ccn[nH]3)CC2)cc1F [Compound 110, 1-(4-(1-(1H-Pyrazol-5-yl)piperidin-4-yl)-2-fluorobenzyl)pyrrolidin-2-one] | 421 µM (≈ 144 µg/mL)
39 | O=S(=O)(Nc1ccc(C2CCN(c3cn[nH]c3)CC2)cc1)C1CC1 [Compound 114, N-(4-(1-(1H-pyrazol-4-yl)piperidin-4-yl)phenyl)cyclopropanesulfonamide] | 74 µM (≈ 25.6 µg/mL)
40 | Cl.Clc1ccc(CC2CCN(c3cn[nH]c3)CC2)cc1 [Compound 115, 4-(4-Chlorobenzyl)-1-(1H-pyrazol-4-yl)piperidine hydrochloride] | 74 µM
